Assay results taken from patent US8207172B2 (Bayer Intellectual Property GmbH, priority 2004, dated 2012).

What was measured:
[1] = system: A431 cells (human epidermoid carcinoma); experiment: In vitro tumor cell proliferation assay (Cell Titer-Glo luminescent cell viability), A431; assay type: cell-based; settings: A-431, 72 h, 72 hours of drug exposure, ATP luminescence readout, read-out: IC50, anti-proliferative activity (inhibition of cell proliferation)
Description: (§1) In vitro Tumor Cell Proliferation Assay
(§2) The tumor cell proliferation assay used to test the compounds of the present invention involves a readout called Cell Titer-Glow® Luminescent Cell Viability Assay developed by Promega® (Cunningham, B A “A Growing Issue: Cell Proliferation Assays, Modern kits ease quantification of cell growth” The Scientist 2001, 15(13), 26, and Crouch, S P et al., “The use of ATP bioluminescence as a measure of cell proliferation and cytotoxicity” Journal of Immunological Methods 1993, 160, 81-88), that measures inhibition of cell proliferation. Generation of a luminescent signal corresponds to the amount of ATP present, which is directly proportional to the number of metabolically active (proliferating) cells.
(§3) A431cells (human epidermoid carcinoma, ATCC […]) and BT474 (human breast carcinoma, ATCC […]) were plated at a density of 2.5×10^3 cells/well in 96 well black-clear bottom tissue culture plates in RPMI media with 10% Fetal Bovine Serum and incubated at 37° C. Twenty-four hours later, test compounds are added at a final concentration range from as high […] to as low 64 pM depend on the activities of the tested compounds in serial dilutions at a final DMSO concentration of 0.1%. Cells were incubated for 72 hours at 37° C. in complete growth media after addition of the test compound. After 72 hours of drug exposure, the plates were equilibrated to room temperature for approximately 30 min. Then, using a Promega Cell Titer Glo Luminescent® assay kit, lysis buffer containing 100 microliters of the enzyme luciferase and its substrate, luciferin mixture, was added to each well. The plates were mixed for 2 min on orbital shaker to ensure cell lysis and incubated for 10 min at room temperature to stabilize luminescence signal. The samples were read on VICTOR 2 using Luminescence protocol, and analyzed with Analyze5 software to generate IC50 values.

[2] = system: BT474 (human breast carcinoma); experiment: In vitro tumor cell proliferation assay (Cell Titer-Glo luminescent cell viability), BT474; assay type: cell-based; settings: BT-474, 72 h, BT474 cells, 72 hours of drug exposure, ATP luminescence readout, read-out: IC50, anti-proliferative activity (inhibition of cell proliferation)
Description: as §1, §2, §3

Row | SMILES | IC50 [1] | IC50 [2]
1 | CN(C)[C@@H]1CCN(CCn2cc3c(n2)CCc2c-3sc3ncnc(Nc4ccc(F)c(Cl)c4)c23)C1 [Example 3, N-(3-chloro-4-fluorophenyl)-2-{2-[(3R)-3-(dimethylamino)pyrrolidin-1-yl]ethyl}-4,5-dihydro-2H-pyrimido[5′,4′:4,5]thieno[2,3-e]indazol-6-amine] | ≤ 5 µM | ≤ 5 µM
2 | COCCNCCn1cc2c(n1)CCc1c-2sc2ncnc(Nc3ccc(F)c(Cl)c3)c12 [Example 4, N-(3-chloro-4-fluorophenyl)-2-{2-[(2-methoxyethyl)amino]ethyl}-4,5-dihydro-2H-pyrimido[5′,4′:4,5]thieno[2,3-e]indazol-6-amine] | ≤ 5 µM | ≤ 5 µM
3 | Fc1ccc(Nc2ncnc3sc4c(c23)CCc2nn(CCN3CCOCC3)cc2-4)cc1Cl [Example 5, N-(3-chloro-4-fluorophenyl)-2-(2-morpholin-4-ylethyl)-4,5-dihydro-2H-pyrimido[5′,4′:4,5]thieno[2,3-e]indazol-6-amine] | ≤ 5 µM | ≤ 5 µM
4 | CS(=O)(=O)OCCn1cc2c(n1)CCc1c-2sc2ncnc(Nc3ccc4c(cnn4Cc4ccccc4)c3)c12 [Example 303, 2-{6-[(1-benzyl-1H-indazol-5-yl)amino]-4,5-dihydro-2H-pyrimido[5′,4′:4,5]thieno[2,3-e]indazol-2-yl}ethyl methanesulfonate] | – | ≤ 1 µM
5 | c1ccc(Cn2ncc3cc(Nc4ncnc5sc6c(c45)CCc4nn(CCN5CCNCC5)cc4-6)ccc32)cc1 [Example 306, N-(1-benzyl-1H-indazol-5-yl)-2-(2-piperazin-1-ylethyl)-4,5-dihydro-2H-pyrimido[5′,4′:4,5]thieno[2,3-e]indazol-6-amine] | – | ≤ 1 µM
6 | CN1CCN(CCn2cc3c(n2)CCc2c-3sc3ncnc(Nc4ccc5c(ccn5Cc5ccccc5)c4)c23)CC1 [Example 337, N-(1-benzyl-1H-indol-5-yl)-2-[2-(4-methylpiperazin-1-yl)ethyl]-4,5-dihydro-2H-pyrimido[5′,4′:4,5]thieno[2,3-e]indazol-6-amine] | – | ≤ 1 µM

Next, values leading:

Row | IC50 [1] | IC50 [2] | SMILES
7 | ≤ 5 µM | ≤ 1 µM | CN(C)C1CCN(C(=O)Cn2ncc3c2CCc2c-3sc3ncnc(Nc4ccc(OCc5cccc(F)c5)c(Cl)c4)c23)C1 (stereo in doubt) [Example 208, N-{3-chloro-4-[(3-fluorobenzyl)oxy]phenyl}-3-{2-[(3S)-3-(dimethylamino)pyrrolidin 1-yl]-2-oxoethyl}-4,5-dihydro-3H-pyrimido[5′,4′:4,5]thieno[2,3-e]indazol-6-amine]
8 | ≤ 5 µM | ≤ 1 µM | CN(C)C1CCN(C(=O)Cn2ncc3c2CCc2c-3sc3ncnc(Nc4ccc(OCc5cccc(F)c5)c(Cl)c4)c23)C1 (stereo in doubt) [Example 211, N-{3-chloro-4-[(3-fluorobenzyl)oxy]phenyl}-3-{2-[(3R)-3-(dimethylamino)pyrrolidin-1-yl]-2-oxoethyl}-4,5-dihydro-3H-pyrimido[5′,4′:4,5]thieno[2,3-e]indazol-6-amine]
9 | ≤ 5 µM | ≤ 1 µM | OCCn1cc2c(n1)CCc1c-2sc2ncnc(Nc3ccc(F)c(Cl)c3)c12 [Example 1, 2-{6-[(3-chloro-4-fluorophenyl)amino]-4,5-dihydro-2H-pyrimido[5′,4′:4,5]thieno[2,3-e]indazol-2-yl}ethanol]
10 | ≤ 5 µM | ≤ 1 µM | CN(C)[C@H]1CCN(CCn2cc3c(n2)CCc2c-3sc3ncnc(Nc4ccc(F)c(Cl)c4)c23)C1 [Example 2, N-(3-chloro-4-fluorophenyl)-2-{2-[(3S)-3-(dimethylamino)pyrrolidin 1-yl]ethyl}-4,5-dihydro-2H-pyrimido[5′,4′:4,5]thieno[2,3-e]indazol-6-amine]
11 | ≤ 5 µM | ≤ 1 µM | Fc1ccc(Nc2ncnc3sc4c(c23)CCc2nn(CCNCCN3CCOCC3)cc2-4)cc1Cl [Example 7, N-(3-chloro-4-fluorophenyl)-2-{2-[(2-morpholin-4-ylethyl)amino]ethyl]-4,5-dihydro-2H-pyrimido[5′,4′:4,5]thieno[2,3-e]indazol-6-amine]
